# Source: patent publication US4758589A, “Tetraphosphine-coordinated gold(I) complexes” (SmithKline Beckman Corporation, priority 1987, dated 1988)
# “And” between values parts separate entries of the source, which are not always exact repeats. Identical values can stand only once.
# What was measured:
# [1] = Struck et al., J. Med. Chem., 9, 414-417 (1966); cited from earlier work
# P388 leukemia = test: in vivo ip P388 lymphocytic leukemia mouse model; design: species or system mouse (B6D2F1); settings: mice bearing ip P388 leukemia; ip Days 1-5; figures separated by slashes are from separate experiments
# Source text: P388 lymphocytic leukemia is currently the most widely used animal tumor model for screening for antitumor agents and for detailed evaluation of active compounds. This tumor system is widely accepted as an antitumor agent screening tool because it is sensitive to virtually all of the clinically active antineoplastic agents; quantitative and reproducible; amenable for large-scale screening; and predictive for activity in other animal tumor models.
# 10^6 P388 leukemia cells are inoculated ip in B6D2F1 mice. Twenty-four hours later, if the tumor inoculum proves to be free of bacterial contamination (as determined by 24 hours incubation in thioglycollate broth), animals are randomized into groups of 6 and housed in shoebox cages. The compound to be evaluated is dissolved in a minimal volume of N,N-dimethylacetamide (DMA). An equal volume of saline is added; if the drug comes out of solution an equal volume of polyethoxylated castor oil is added and then saline qs to a concentration such that the desired dose is delivered in 0.5 ml. The final concentration of DMA and polyethoxylated castor oil is 10 percent. Dilutions for lower doses are made with saline so there is a decreasing proportion of organic solvents in the vehicle with decreasing dosage. This vehicle provides a soluble formulation. […] Animals are monitored daily for mortality and experiments are terminated after 45 days. […]
# [2] = maximally tolerated dose, mice, ip qD x 10 (Table B); format: in vivo, mouse (B6D2F1); settings: B6D2F1 mice, ip qD x 10 regimen
# Method: (§1) In this system, groups of eight B6D2F1 mice are inoculated ip with 0.5 ml of a 10% (w:v) brei of B15 melanoma prepared from pooled sc tumors excised at 14-21 days from […] donor mice. Daily treatment is begun 24 hours after tumor implantation and is continued daily for ten (10) days. The route of drug administration is ip. The mice are monitored daily for survival for sixty (60) days. Antitumor activity is assessed by prolongation of median survival time. An ILS of ≥25% indicates activity in this tumor model.
# ^(b) maximally tolerated dose for B6D2F1 mice on an ip qD .times
# [3] = maximally tolerated dose, mice, ip qD x 10 (Table C); format: in vivo, mouse (B6D2F female); settings: B6D2F female mice, ip qD x 10 regimen
# Method: (§2) Another chemosensitive tumor model is intraperitoneally (ip) implanted M5076 reticulum cell sarocma in mice. In this system B6D2F female mice are inoculated with 0.5 ml of a 10 percent (w:v) brei of M5076 prepared from pooled subcutaneous (sc) tumors excised at about 21 days from C57B1/6 donors. Drugs are administered ip. Daily treatment is begun 24 hours after implantation and is continued for ten days. The treatment regimen for M5076 is more prolonged than for P388 because of the slower growth rate and longer control survival time of the M5076 tumor. A drug is considered active in this tumor model if it produces ≥25% ILS.
# ^(b) maximally tolerated dose for B6D2F female mice on ip qD ×
# [4] = system: M5076 reticulum cell sarcoma; test: ip M5076 reticulum cell sarcoma tumor model; format: in vivo, mouse (B6D2F); settings: mice bearing ip M5076 reticulum cell sarcoma; ip daily for 10 days
# Method: as §2
# B16 melanoma = test: in vivo ip B16 melanoma assay; design: species or system mouse (B6D2F1); settings: mice bearing ip B16 melanoma; ip daily for 10 days
# Method: as §1
SMILES,cytotoxic activity [1],ILS (max): maximum increase in lifespan (P388 leukemia),MTD (maximally tolerated dose) [2] [mg/kg],MTD (maximally tolerated dose) [3] [mg/kg],ILS (MAX): maximum increase in lifespan [4] [%],ILS: maximum increase in lifespan (B16 melanoma) [%]
"c1ccc(P(CCP(c2ccccc2)c2ccccc2)c2ccccc2)cc1 [1,2-bis(diphenylphosphino)ethane]",cytotoxic activity,,,,,
"[Cl][Au].c1ccc(P(CCP(CCP(c2ccccc2)c2ccccc2)c2ccccc2)CCP(c2ccccc2)c2ccccc2)cc1 (stereo not drawn) [Compound 1, Chloro[1,1,4,7,10,10-hexaphenyl-1,4,7,10-tetraphosphodecane-P^1, P^4, P^7, P^10]gold(I)]",,40% and 65%,2,2,38,37
